The source of these data is patent publication US20250163065A1, “PYRROLOTRIAZINONE COMPOUND, PHARMACEUTICAL COMPOSITION COMPRISING SAME, PREPARATION METHOD THEREFOR, AND USE THEREOF” (SHANGHAITECH UNIVERSITY, priority 2022, published 2025).

Each structure is given as a SMILES string. Read-outs that look alike come from different tables or passages of the source.

By Emax is commonly meant the maximal effect, on the per cent scale that the assay sets. Usually EC50 stands for the concentration at which the effect is half-maximal. As a reminder, the Tmax is the time at which the peak concentration occurs. What is called Cmax is the maximum level reached in the sampled fluid or tissue. In general, Kp refers to tissue or fluid exposure divided by exposure in the circulation.

In one data set the target is GPR139 (Homo sapiens (Human), UniProt Q6DWJ6). Description: Agonistic activity on GPR139, calcium flux detection assay (FLIPR) in transfected CHO-K1 cells. The data set is classed as cell-based. The settings on record: for Emax: CHO-K1; for EC50: calcium flux, CHO-K1 cells transfected with GPR139 plasmid, mean ± standard deviation.
GPR139, sequence (Q6DWJ6 whole entry, species assumed): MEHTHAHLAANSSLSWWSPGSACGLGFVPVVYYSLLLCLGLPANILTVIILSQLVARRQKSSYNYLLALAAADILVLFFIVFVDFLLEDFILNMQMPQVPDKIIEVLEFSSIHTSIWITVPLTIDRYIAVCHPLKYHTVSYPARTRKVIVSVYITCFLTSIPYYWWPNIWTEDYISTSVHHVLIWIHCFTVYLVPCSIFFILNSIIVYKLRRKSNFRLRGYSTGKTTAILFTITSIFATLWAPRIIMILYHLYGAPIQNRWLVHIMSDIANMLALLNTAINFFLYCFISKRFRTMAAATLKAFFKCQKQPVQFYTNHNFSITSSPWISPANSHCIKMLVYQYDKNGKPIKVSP
A short description of data set [1]: Pharmacokinetics and brain distribution in mice after single intraperitoneal injection. It is filed as in vivo, male C57 mice. The settings on record: mouse, 10 mg/kg intraperitoneal; for half-life / Tmax / Cmax: C57, ip.
The subject of the next data set is BALB/c mice. Description: Social interaction experiment in BALB/c mice (negative symptoms of schizophrenia). The data set is classed as in vivo. The settings on record: for Social time: 10-minute period. An excerpt: The experimental subjects were 6-week-old male BALB/c wild-type mice, weighing approximately 22 grams, purchased from Shanghai Lingchang Biotechnology Co., Ltd. They were housed in SPF-grade breeding facilities, with 2 mice per cage, under a 12-hour light/dark cycle, with free access to food and water. All behavioral experiments in this project were completed during the light cycle. The experiment adhered to all relevant regulations and guidelines for animal welfare and ethics, and was supervised and inspected by the ethics committee and laboratory animal managers.
The length, width, and height of the behavioral box used in this experiment were all 40 cm. During the experiment, 4 mice were tested in 4 behavioral boxes at the same time. In this experiment, Etho Vision XT was used for experimental setup and video recording.
The mice were 5 weeks old when purchased. After one week of observation, the experiment was started when they were 6 weeks old and weighed about 22 grams. Before each experiment, the experimental mice were restricted from eating 18 hours in advance. On the day of the experiment, the mice were transferred to the behavioral laboratory to familiarize themselves with the environment 1 hour in advance. Subsequently, they were administered by intraperitoneal injection, and each mouse was returned to its original cage after injection. After 20 minutes, the experimental mice were placed in the behavioral box to acclimate for 10 minutes. Then, a stimulus mouse (from the same batch of BALB/c) was placed in a corner of the behavioral box, away from the experimental mouse. The two mice were allowed to explore freely for 10 minutes while their activity was monitored and recorded by a camera, and the data was archived.
The experimental data were analyzed. The social interaction time (including approaching, sniffing, grooming, chasing, attacking, etc.) was calculated for each experimental mouse over a 10-minute period, and the total social time of each mouse across different groups was analyzed by one-way analysis of variance.

Setting [2] is: male, brain tissue, mean n=3, read-out: T1/2 Brain (converted).
Setting [3] is: male, brain tissue, mean n=3, read-out: tmax Brain.
Setting [4] is: male, plasma, mean n=3, read-out: T1/2 Plasma (converted).
Where [5] appears, read: male, plasma, mean n=3, read-out: tmax Plasma.

As for `CC(C)[C@H](NC(=O)Cn1ncc2cccn2c1=O)c1ccc(F)cc1` [Compound I-37, (S)—N-(1-(4-fluorophenyl)-2-methylpropyl)-2-(4-oxopyrrolo[1,2-d][1,2,4]triazin-3(4H)yl)acetamide], at GPR139, the Emax turned out to be 92% and the concentration giving a half-maximal response (EC50) worked out at 0.12 µM.
Regarding `C[C@H](NC(=O)Cn1ncc2cccn2c1=O)c1ccc(F)cc1` [Compound I-1], the half-life is 19.2 min in data set [1] (setting [2]) and 42 min in data set [1] (setting [4]). Further, the time of peak concentration (Tmax) in data set [1] (setting [3]) and in data set [1] (setting [5]) was 30 min in each case. In data set [1] (male, plasma, mean n=3), this molecule had a Cmax of 700 ng/g. Further, the “Cmax Brain” value in data set [1] (brain tissue, mean n=3) was found to be 713 ng/g.
`C[C@H](NC(=O)Cn1nnc2ccccc2c1=O)c1ccc(OC(F)(F)F)cc1` [TAK-041, reference compound] came in with a Kp in data set [1] (male, C57, brain and plasma, ip) of 0.892. The Tmax was 30 min in data set [1] (setting [3]) and 360 min in data set [1] (setting [5]). In addition, the “Cmax Brain” value in data set [1] (brain tissue, mean n=3) worked out at 6754 ng/g. Further, in data set [1] (brain tissue, mean n=3), the “T1/2 Brain” value is 108 h. In addition, the “Cmax Plasma” value in data set [1] (plasma, mean n=3) was 7057 ng/g. Further, the “Social time” value in the data set with BALB/c mice (1 mg/kg intraperitoneal) is 93 ± 26 s; in the data set with BALB/c mice (3 mg/kg intraperitoneal), 129 ± 28 s.
Consider `C[C@H](NC(=O)Cn1ncc2cccn2c1=O)c1ccc(OC(F)(F)F)cc1` [Compound I-5, (S)-2-(4-oxopyrrolo[1,2-d][1,2,4]triazin-3(4H)yl)-N-(1-(4-(trifluoromethoxy)phenyl)ethyl)acetamide], for which the “One-way analysis of variance (social time)” value in the data set on BALB/c mice (0.3 mg/kg intraperitoneal) and in the data set with BALB/c mice (1 mg/kg intraperitoneal) was “No difference” in each case. Also, the “Social time” value with BALB/c mice (0.3 mg/kg intraperitoneal) was found to be 107 ± 15 s; in the data set on BALB/c mice (1 mg/kg intraperitoneal), 103 ± 17 s; in the data set with BALB/c mice (3 mg/kg intraperitoneal) it was 129 ± 12 s. The “Effect on social disorders in mice” value in the data set on BALB/c mice (dose of 3 mg/kg) was “significant improvement effect”.
In the case of `C[C@H](NC(=O)Cn1ncc2cccn2c1=O)c1ccc(C(F)(F)F)cc1` [Compound I-32, (S)-2-(4-oxopyrrolo[1,2-d][1,2,4]triazin-3(4H)yl)-N-(1-(4-(trifluoromethyl)phenyl)ethyl)acetamide], the half-life in data set [1] (setting [2]) was 31.8 min; in data set [1] (setting [4]), 31.2 min. Besides, the time of peak concentration (Tmax) in data set [1] (setting [3]) and in data set [1] (setting [5]) was 30 min throughout. For the same molecule, in data set [1] (male, plasma, mean n=3), the Cmax amounted to 868 ng/g. In addition, in data set [1] (brain tissue, mean n=3), the “Cmax Brain” value was 1264 ng/g.
On to `Cc1ccc2cnn(CC(=O)N[C@@H](C)c3ccccc3)c(=O)n12` [Compound I-14, (S)-2-(6-methyl-4-oxopyrrolo[1,2-d][1,2,4]triazin-3(4H)yl)-N-(1-phenylethyl)acetamide], for which the EC50 on GPR139 amounted to 0.013 ± 0.002 µM.
`Cc1cc(C)n2c(=O)n(CC(=O)N[C@@H](C)c3ccc(Cl)cc3)ncc12` [Compound I-22, (S)—N-1-(4-chlorophenyl)ethyl-2-(6,8-dimethyl-4-oxopyrrolo[1,2-d][1,2,4]triazin-3(4H)yl)acetamide]: the concentration giving a half-maximal response (EC50) at GPR139 is 0.056 ± 0.011 µM.
In the case of `Cc1ccc2cnn(CC(=O)N[C@H](c3ccc(F)cc3)C(C)C)c(=O)n12` [Compound I-39, (S)—N-(1-(4-fluorophenyl)-2-methylpropyl)-2-(6-methyl-4-oxopyrrolo[1,2-d][1,2,4]triazin-3(4H)yl)acetamide], at GPR139, the Emax came out at 94% and the EC50 was found to be 0.026 µM.
Turning to `Cc1ccc([C@H](C)NC(=O)Cn2ncc3c(C)cc(C)n3c2=O)cc1` [Compound I-18, (S)-2-(6,8-dimethyl-4-oxopyrrolo[1,2-d][1,2,4]triazin-3(4H)yl)-N-(1-(p-tolyl)ethyl)acetamide], the EC50 on GPR139 turned out to be 0.093 ± 0.015 µM.
On the same count and under the same terms, the value for `C[C@H](NC(=O)Cn1ncc2cccn2c1=O)c1ccccc1` [Compound I-4, (S)-2-(4-oxopyrrolo[1,2-d][1,2,4]triazin-3(4H)yl)-N-(1-phenylethyl)acetamide] was 0.111 ± 0.004 µM.
